In a melting point compilation (Tetko et al.; mined from patent text by program, amines drawn as free bases though some values may be those of a salt):

In the case of `C=C1SC(=O)N(c2ccc3cc(-c4cc5c(c(-c6ccncc6)c4)OCO5)ccc3c2)C1=O`, the melting point is reported as 304 to 307 °C. For `CC(C)N(NC(=O)c1ccc(Cl)c(Cl)c1)C(=O)c1ccccc1`, the melting point was 157 °C. In the case of `O=C1c2ccc(OCCCO)cc2C(=O)c2ccc(OCCCO)cc21`, the melting point is reported as 190 °C. `CCCc1c(O)c(C(C)=O)cc2c1CCCC2` showed a melting point of 52 to 53 °C. `CCCc1c(OCCCCCC(=O)NCCCCCCc2cccnc2)ccc(C(C)=O)c1O` showed a melting point of 56 to 58 °C. `C[C@H](c1ccccc1)N(CC(=O)OC(C)(C)C)S(=O)(=O)c1ccc2c(Cl)cnc(NC(=N)N)c2c1` showed a melting point of 106 to 111 °C. `Cn1cc(C(O)c2ccncc2)cc1C(=O)c1ccc(Cl)cc1` (stereo not given) showed a melting point of 145 to 146 °C. For `C#CCOc1ccc(CC(=O)O)cc1[N+](=O)[O-]`, the melting point was 135 to 137 °C. Work on `Cc1nn(C)c(CBr)c1Oc1cc(Cl)cc(C#N)c1` yielded a melting point of 76 to 78 °C. `CCOCCOc1cc(C(O)C#Cc2ccc(C(=O)O)cc2)cc2c1C(C)(C)CCC2(C)C` (stereo not given) gave a melting point of 158 °C. Work on `CCOC(=O)Nc1cc(OCC)c(Br)cc1F` yielded a melting point of 92.5 to 95 °C. `Clc1cc(Nn2cccc2)ncn1` gave a melting point of 196 to 198 °C. `COc1c(C)c2c(c(C)c1NC(=O)CC(C)(C)C)C(c1ccc(C(C)C)cc1)CO2` (stereo not given) gave a melting point of 162 to 163 °C. `CC(=O)OC1CSC(Oc2cncc(-c3ccc(F)c(C#N)c3)c2)C(OC(C)=O)C1OC(C)=O` (stereo not given) gave a melting point of 178 °C. For `CCCCc1nn(-c2ccccc2C(F)(F)F)c(=O)n1Cc1ccc(-c2ccccc2S(=O)(=O)NC(=O)C2CC2)cc1`, the melting point was 187 to 189 °C. In the case of `N=C(N)c1ccc(-c2cnc(-c3ccc(C(=N)N)cc3)nc2)cc1`, the melting point is reported as greater than 300 °C. For `CC(C)n1cc(-c2nc(C#N)c(N)nc2-c2cccc(F)c2)ccc1=O`, the melting point was 211 °C. `O=C1Cc2cc3c(cc2CCN1Cc1ccccc1)OCO3` showed a melting point of 141 to 142 °C. For `Nc1cc(F)c([N+](=O)[O-])cc1F`, the melting point was 153 °C. `C[C@@H]1CN(c2nccc(Oc3ccc(NC(=O)c4cc(F)cc(N5CCCCC5)c4)c4ccccc34)n2)C[C@H](C)O1` gave a melting point of 174 to 176 °C. `C=CCON=C(CC)C1=C(OCc2ccccc2)CC(C)(C)CC1=O` gave a melting point of 60.5 to 61.5 °C. In the case of `CCN(CC)C(=O)Cc1c(-c2ccc(Br)cc2)nc2c(C)cc(C)nn12`, the melting point is reported as 171 to 175 °C. Work on `NC(=O)CCc1c[nH]c2ccccc12` yielded a melting point of 140 °C. With `COC1=CC23CCN(C)C(Cc4ccc(OC)c(O)c42)C3=CC1C` (stereo not given) the melting point was 97 to 100 °C. `CCOC(=O)c1ccnc(-c2nc(=O)c3ccccc3s2)c1` gave a melting point of 236 to 237 °C. Work on `N#Cc1nn(-c2c(Cl)cc(Cl)cc2Cl)cc1C1CC1(Br)Br` (stereo not given) yielded a melting point of 164 °C. In the case of `CSCC(=O)C(Cc1ccccc1)NC(=O)C(CC(C)C)NC(=O)Cc1cccc2ccccc12` (stereo not given), the melting point is reported as 126 to 129 °C. In the case of `Cc1c(Cc2cccc(C(F)(F)F)c2)oc2c(-c3cccc(C(=O)NCC(N)=O)c3)cccc12`, the melting point is reported as 194 to 195 °C. For `Cn1c(C#N)cc(Br)c1Br`, the melting point was 104 to 105 °C. `Cc1cc(C)c2nc(C3CC3)n(-c3ccc(C(C(=O)O)C4CCCC4)cc3)c2n1` (stereo not given) gave a melting point of 180 °C. `Cn1nc(-c2c(F)cc(Cl)c(=S)n2Cc2ccccc2)c(Cl)c1OC(F)F` showed a melting point of 135 to 138 °C. For `COC(=O)CCc1ccc(OCc2cccc(/C=C/c3ccccc3)c2)cc1`, the melting point was 100 to 101 °C. In the case of `CCc1cc(OCc2ccc(-c3ccccc3-c3nnn(C(c4ccccc4)(c4ccccc4)c4ccccc4)n3)cc2)c2nc(OC)ccc2n1`, the melting point is reported as 145 to 148 °C. Work on `CCOCc1nc2c(N)nc(C)c(C)c2n1N(C)C` yielded a melting point of 170 to 171 °C. With `CCCCCCC(=O)NCCO` the melting point was 91 to 93 °C. `O=C(O)Cc1nn(-c2nc3c(Cc4ccc5scnc5c4)cccc3s2)c(=O)c2ccccc12` gave a melting point of 203 to 204 °C. `Nc1c(F)c(N2CC(O)C2)c(F)c2c1c(=O)c(C(=O)O)cn2C1CC1` showed a melting point of 271 to 275 °C. `C=COCCCCOC(=O)CCCCCCCCCCC(=O)OCCCCOC=C` gave a melting point of 42 to 43 °C. With `CC(=O)Nc1cc(Cl)c([N+](=O)[O-])cc1NC(C)=O` the melting point was 232 °C. With `C=Cc1cn(-c2c(Cl)cc(C(F)(F)F)cc2Cl)nn1` the melting point was 109 to 111 °C. For `CC(C)(C)OC(=O)Cn1c(C(=O)OCc2ccccc2)cc2cnccc21`, the melting point was 94 °C. Work on `CCn1c(C)nc2cc(Sc3cccc4cnccc34)c([N+](=O)[O-])cc21` yielded a melting point of 236 to 242 °C. Molecule `O=[N+]([O-])c1c(-c2c(C(F)(F)F)[nH]c(-c3ccc(Cl)cc3)c2[N+](=O)[O-])csc1Br` has a melting point of 186 to 190 °C. For `O=C(O)CCc1cn(Cc2ccc(OCc3csc(-c4cccs4)n3)cc2)cc1-c1ccccc1`, the melting point was 106 to 107 °C. `CC(c1ccc(Br)cc1)N1CCC(NC(=O)CCc2nc(-c3ccccn3)no2)CC1` (stereo not given) gave a melting point of 142 to 143 °C. With `CCOC(=O)c1ccc2nc(-c3ccc(C)cc3)c(CN(C)C(=O)CC(C)C)n2c1` the melting point was 158 to 160 °C. Work on `COc1ccc(Cl)cc1-c1nnn(-c2ccc(Cl)cc2Cl)c1N` yielded a melting point of 154 to 155 °C. `Cc1cccc(Cl)c1CCCOc1oc(-n2ccnc2C)nc1-c1ccc(Cl)cc1` gave a melting point of 115 to 116 °C. In the case of `CN(C)CCc1cccc2ccc(-c3ccccc3CNS(C)(=O)=O)cc12`, the melting point is reported as 151 to 154 °C. With `COc1cc2c(cc1OC)CN(CCCCc1ccc(NC(=O)c3cccc4c(=O)cc(-c5ccccc5)[nH]c34)cc1)CC2` the melting point was 204 °C. Work on `C#CCOc1cccc(-n2c(-c3ccccc3)cc(=O)c(C)c2-c2ccccc2)c1` yielded a melting point of 166 to 169 °C. `CC(=O)N1c2ccc(-c3ccc(-c4nnn[nH]4)cc3)cc2C(Nc2ccc(Cl)cc2)CC1C` (stereo not given) showed a melting point of 250 °C. `CCc1nc2c(cnn2CC)c(NC2CCOCC2)c1CNC(=O)c1cccc(C(=O)NCc2ccc(F)c(-c3cccc(CN4CCNC(=O)C4)c3)c2)c1` showed a melting point of 147 to 150 °C. Work on `Cc1c(C(=O)O)ccc(Oc2cccnc2)c1S(C)(=O)=O` yielded a melting point of 214 to 216 °C. Work on `CCCCCn1c(C)c(C(=O)c2ccc(Cl)c3ccccc23)c2cccc(OC)c21` yielded a melting point of 112 °C. In the case of `CC(O)c1cccc(-c2ccc3nc(-c4ccc(Cl)cc4)cn3c2)c1Cl` (stereo not given), the melting point is reported as 170 to 172 °C. For `O=c1cc(C(F)(F)F)nc(Nc2cc(C(F)(F)F)ccc2C(F)(F)F)n1C1CCCCC1`, the melting point was 154 to 156 °C. With `Nc1nc2ccnc(-c3cccc(C=O)c3)n2n1` the melting point was 205 to 208 °C. With `CN(C)Cc1cc2ccc(C(=O)NNC(=O)CSCCOc3ccccc3)cc2o1` the melting point was 162 to 164 °C. With `C=CCc1ccc(C(=O)CCC(=O)OC)cc1O` the melting point was 90 to 92.5 °C. Work on `Cc1c(-c2ccccc2)sc2nc(NC3CCCCC3)[nH]c(=O)c12` yielded a melting point of 265 to 270 °C. `CON=C(C(=O)OC)c1c(C)cccc1CBr` gave a melting point of 76 to 78 °C. For `O=C(O)[C@@H]1C[C@H](SCc2ccc(C3CCCCC3)cc2)CN1`, the melting point was 209 to 210 °C. `Cc1cccc2c(Nc3ccc(OCCCCN(CCCl)CCCl)cc3)c3cccc(C(=O)NCCN(C)C)c3nc12` showed a melting point of 166 to 167 °C. In the case of `COc1ccccc1-c1cc(C(F)(F)F)nn1-c1ccc(S(N)(=O)=O)c(F)c1`, the melting point is reported as 159 to 160 °C. Molecule `C=CC[C@@H]1C[C@@H](COS(C)(=O)=O)NC1=O` has a melting point of 62 to 63 °C. For `O=C(C=Cc1ccccc1)N1CCc2c([nH]c3ccccc23)C1c1ccccc1` (stereo not given), the melting point was 130 to 132 °C. `CCOCCCNC(=O)c1ccc(S(=O)(=O)NC(=O)c2ccc(C(=O)NCC(=O)O)nc2)cc1` showed a melting point of 109 °C. Molecule `CN1CCN(Cc2c(O)ccc3c2OCO3)CC1` has a melting point of 85 to 87 °C. Work on `COc1ccc(CCS(N)(=O)=S)cc1` (stereo not given) yielded a melting point of 186 to 187 °C. `CCSc1cn(C(C)C(=O)N(C)C)nc1-c1ccccc1` (stereo not given) showed a melting point of 70 to 72 °C. With `N#Cc1ccc(OC2SCC(O)C(O)C2O)cn1` (stereo not given) the melting point was 179 to 180 °C. Work on `CCOCc1nc2c(N)nc3cc(-c4cccnc4)ccc3c2n1CC(C)C` yielded a melting point of 180 to 182 °C. With `CCNC(=O)c1sc(S(C)=O)cc1[Si](C)(C)C` (stereo not given) the melting point was 71 to 76 °C. Work on `COC(=O)c1ccc(C(=O)Nc2cc3c4c(c2)CCCC4(C)CCC3)s1` yielded a melting point of 212 °C. Work on `O=C(O)C1CS(=O)(=O)C2CC(=O)N12` (stereo not given) yielded a melting point of 164 to 167 °C. Work on `Cc1ccc(C)n1-c1ccc2ccc3[nH]c(=O)c(=O)n(CC(=O)Nc4ccccc4)c3c2c1` yielded a melting point greater than 260 °C. With `Fc1cccnc1N1CCN(Cc2nc3ccccc3[nH]2)CC1` the melting point was 210 to 212 °C. Work on `COC(=O)c1nn(Cc2cccc(O)c2)c2c1CCc1cc(OCc3cncnc3)ccc1-2` yielded a melting point of 218 to 222 °C. For `CCCN(CCC)c1nsc(NC(=O)NC)c1C(N)=O`, the melting point was 168 to 169 °C. Molecule `NS(=O)(=O)C=Cc1ccc(Cl)c(Cl)c1` has a melting point of 127 to 130 °C. `COC(CN(c1nc2ccccc2o1)[C@H]1c2cc(C#N)ccc2OC(C)(C)[C@@H]1O)OC` gave a melting point of 66 °C. For `NC(=O)Cc1cccc(C(O)c2ccccc2)c1N` (stereo not given), the melting point was 198 to 199 °C. For `CCNC(=O)CCCC1CCN(Cc2cnc3cc(NC(=O)c4ccc(-c5ccc(F)cc5)cc4)c(C)cc3c2)CC1`, the melting point was 240 °C. Work on `O=C1NC(=O)c2cc(Nc3ccc(OCc4ccccc4)cc3)c(Nc3ccc(OCc4ccccc4)cc3)cc21` yielded a melting point of 187 to 189 °C. For `C1CNCCSCCNCCN1`, the melting point was 51 to 54 °C. Molecule `CCN(CC)CCOc1ccc(-c2oc3ccccc3c2C(=O)c2cc(C)c(OC)c(C)c2)cc1` has a melting point of 130 to 133 °C. Molecule `CC(=O)Nc1cc2c(Nc3ccc(Sc4nccn4C)c(Cl)c3)c(C#N)cnc2cc1N1CCC(N2CCCC2)CC1` has a melting point of 243 to 255 °C. For `CN(c1ccc(Br)cc1)S(=O)(=O)c1cccc(C(=O)Nc2ccc(F)cc2F)c1`, the melting point was 119 to 120 °C. For `CCOC(=O)C(C)(C)c1ccc(C(O)CCCN2CCC(C(O)(c3ccccc3)c3ccccc3)CC2)cc1` (stereo not given), the melting point was 141 to 142 °C. Molecule `CCCCC(CC)n1nnc2c(Nc3c(Cl)cc(OC)cc3OC)nc(C)cc21` (stereo not given) has a melting point of 155 to 156 °C. In the case of `c1ccc(COc2ccccc2OCCNCCCNc2ncccn2)cc1`, the melting point is reported as 90.1 °C. Work on `COc1c(OCc2ccccc2)c(OC)c2c(=O)cc(-c3ccc(OCc4ccccc4)c(OCc4ccccc4)c3)oc2c1OC` yielded a melting point of 155 to 156 °C. Work on `CCOc1cc(OCC)c(C=NNC(=N)NCc2ccccc2)c(OCC)c1` yielded a melting point of 140 to 141 °C. `COc1ccc(-c2c3c(cc4ccc(O)cc24)-c2ccc(O)cc2CO3)cc1OC` gave a melting point of 245 to 248 °C.
